Assay results taken from patent US9604975B2, “Indolyl-pyridone derivatives having checkpoint kinase 1 inhibitory activity” (Vernalis (R&D) Ltd., priority 2009, dated 2017).

Assays:
CHK1 = target: T1, CHK1 (Homo sapiens, UniProt O14757); assay: CHK1 Enzyme Assay (phosphorylation of Chktide peptide, 33P-ATP filter assay); assay type: biochemical; settings: 12.5 nM His-CHK1, 0.01 mM ATP, 40 minutes at 30° C.; read-out: CHK1 Enzyme Activity (IC50 range)
T1 construct: His; purchased Invitrogen
T1 sequence (O14757 1-476): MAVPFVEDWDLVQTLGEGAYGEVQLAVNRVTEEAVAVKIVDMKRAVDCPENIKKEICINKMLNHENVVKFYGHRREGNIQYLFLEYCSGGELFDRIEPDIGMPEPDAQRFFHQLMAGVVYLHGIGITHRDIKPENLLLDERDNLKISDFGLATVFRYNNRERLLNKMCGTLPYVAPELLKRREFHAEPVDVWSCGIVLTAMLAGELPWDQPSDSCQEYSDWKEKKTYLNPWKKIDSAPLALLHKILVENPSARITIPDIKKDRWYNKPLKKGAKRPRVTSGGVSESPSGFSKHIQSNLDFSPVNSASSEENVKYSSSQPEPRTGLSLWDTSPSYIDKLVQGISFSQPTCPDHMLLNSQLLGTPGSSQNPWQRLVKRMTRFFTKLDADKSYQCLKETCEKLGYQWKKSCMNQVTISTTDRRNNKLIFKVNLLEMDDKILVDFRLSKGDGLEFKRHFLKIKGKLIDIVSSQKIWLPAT
Summary of the method: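 Filter-binding radiometric readout of 33P incorporation into Chktide (14.8 μM), after a 40 min, 30 °C reaction at pH 7.5 (50 mM Hepes-NaOH, 0.1 mg/mL BSA). The reaction contained 12.5 nM His-tagged CHK1, inhibitor and 0.01 mM cold ATP plus labelled ATP.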

HT29 cells = assay: CHK1 Cellular Assay - Gemcitabine EC50 Assay; assay type: cell-based; settings: HT29 cells, in the presence of gemcitabine at 10 nM, 72 hours, SRB staining; read-out: CHK1 Cellular Activity (EC50 range)
Method: The gemcitabine EC50 assay was developed as a rapid method for screening CHK1 inhibitors to determine their relative cell activity. This assay utilises a feature of the effect of CHK1 inhibitors on gemcitabine toxicity. In the absence of a CHK1 inhibitor, gemcitabine acts predominantly as an anti-metbolite and therefore induces very little cell death, even at high concentrations. This can be as high as 70-80% survival at concentrations in excess of 1 μM. However, in the presence of a CHK1 inhibitor, the mechanism of action of gemcitabine switches to a more classical cytotoxic mode of action. For example, the fraction of cells surviving can be reduced to around 30% and below. Concentrations of gemcitabine can be selected that in the absence of a CHK1 inhibitor, have no effect on cell survival but in the presence of a CHK1 inhibitor are highly cytotoxic. 10000 HT29 cells were plated per well of a 96 well plate and allowed to attach at 37° C. in a 5% CO2 humidified incubator for 18 hours. CHK1 inhibitors were then titrated in the presence of 10, 15 and 20 nM gemcitabine for 72 hours and the EC50 determined by staining with sulforhodamine B (SRB) and determining the absorbance at 540 nm.

SMILES	IC50 (CHK1)	EC50 (HT29 cells)
CC(c1ccccc1)n1cc(C(=O)Nc2c[nH]c(=O)c(-c3cc4cc(CN5CCC(F)CC5)ccc4[nH]3)c2)cn1 (stereo not drawn) [Example 87, 1-(1-Phenyl-ethyl)-1H-pyrazole-4-carboxylic acid {5-[5-(4-fluoro-piperidin-1-ylmethyl)-1H-indol-2-yl]-6-oxo-1,6-dihydro-pyridin-3-yl}-amide]	< 100 nM	< 100 nM
CN(C)CC(C)(C)COc1ccc2[nH]c(-c3cc(NC(=O)c4cnn(Cc5ccccc5)c4)c[nH]c3=O)cc2c1 [Example 120, 1-Benzyl-1H-pyrazole-4-carboxylic acid {5-[5-(3-dimethylamino-2,2-dimethyl-propoxy)-1H-indol-2-yl]-6-oxo-1,6-dihydro-pyridin-3-yl}-amide]	< 100 nM	< 100 nM
C[C@@H]1CN(Cc2ccc3[nH]c(-c4cc(NC(=O)c5cnn([C@H](C)c6ccccc6)c5)c[nH]c4=O)cc3c2)C[C@H](C)O1 [Example 166]	< 100 nM	< 100 nM
CCN(Cc1ccc2[nH]c(-c3cc(NC(=O)c4cnn(Cc5ccccc5)c4)c[nH]c3=O)cc2c1)CC(C)(C)CN(C)C [Example 176, 1-Benzyl-1H-pyrazole-4-carboxylic acid [5-(5-{[(3-dimethylamino-2,2-dimethyl-propyl)-ethyl-amino]-methyl}-1H-indol-2-yl)-6-oxo-1,6-dihydro-pyridin-3-yl]-amide]	< 100 nM	100 to 500 nM
CCN(CC)CC(C)(C)COc1ccc2[nH]c(-c3cc(NC(=O)c4cnn(Cc5ccccc5)c4)c[nH]c3=O)cc2c1 [Example 178, 1-Benzyl-1H-pyrazole-4-carboxylic acid {5-[5-(3-diethylamino-2,2-dimethyl-propoxy)-1H-indol-2-yl]-6-oxo-1,6-dihydro-pyridin-3-yl}-amide]	< 100 nM	< 100 nM
CN(C)CC(C)(C)Oc1ccc2[nH]c(-c3cc(NC(=O)c4cnn(Cc5ccccc5)c4)c[nH]c3=O)cc2c1 [Example 179, 1-Benzyl-1H-pyrazole-4-carboxylic acid {5-[5-(2-dimethylamino-1,1-dimethyl-ethoxy)-1H-indol-2-yl]-6-oxo-1,6-dihydro-pyridin-3-yl}-amide]	< 100 nM	< 100 nM
CC(C)(COc1ccc2[nH]c(-c3cc(NC(=O)c4cnn(Cc5ccccc5)c4)c[nH]c3=O)cc2c1)CN1CCCCC1 [Example 185, 1-Benzyl-1H-pyrazole-4-carboxylic acid {5-[5-(2,2-dimethyl-3-piperidin-1-yl-propoxy)-1H-indol-2-yl]-6-oxo-1,6-dihydro-pyridin-3-yl}-amide]	< 100 nM	< 100 nM
CCN(CC)CC1(COc2ccc3[nH]c(-c4cc(NC(=O)c5cnn(Cc6ccccc6)c5)c[nH]c4=O)cc3c2)CC1 [Example 186, 1-Benzyl-1H-pyrazole-4-carboxylic acid {5-[5-(1-diethylaminomethyl-cyclopropylmethoxy)-1H-indol-2-yl]-6-oxo-1,6-dihydro-pyridin-3-yl}-amide]	< 100 nM	< 100 nM

More lines, now with the values ahead:

IC50 (CHK1)	EC50 (HT29 cells)	SMILES
< 100 nM	< 100 nM	C[C@H]1CCCCN1Cc1ccc2[nH]c(-c3cc(NC(=O)c4cnn(Cc5ccccc5)c4)c[nH]c3=O)cc2c1 [Example 171, 1-Benzyl-1H-pyrazole-4-carboxylic acid {5-[5-((S)-2-methyl-piperidin-1-ylmethyl)-1H-indol-2-yl]-6-oxo-1,6-dihydro-pyridin-3-yl}-amide]
< 100 nM	< 100 nM	C[C@@H]1CCCCN1Cc1ccc2[nH]c(-c3cc(NC(=O)c4cnn(Cc5ccccc5)c4)c[nH]c3=O)cc2c1 [Example 173, 1-Benzyl-1H-pyrazole-4-carboxylic acid {5-[5-((R)-2-methyl-piperidin-1-ylmethyl)-1H-indol-2-yl]-6-oxo-1,6-dihydro-pyridin-3-yl}-amide]
< 100 nM	< 100 nM	C[C@@H]1CCC[C@H](C)N1Cc1ccc2[nH]c(-c3cc(NC(=O)c4cnn(Cc5ccccc5)c4)c[nH]c3=O)cc2c1 [Example 177, 1-Benzyl-1H-pyrazole-4-carboxylic acid {5-[5-(cis-2,6-dimethyl-piperidin-1-ylmethyl)-1H-indol-2-yl]-6-oxo-1,6-dihydro-pyridin-3-yl}-amide]
< 100 nM	< 100 nM	CC(C)(COc1ccc2[nH]c(-c3cc(NC(=O)c4cnn(Cc5ccccc5)c4)c[nH]c3=O)cc2c1)CN1CCCC1 [Example 180, 1-Benzyl-1H-pyrazole-4-carboxylic acid {5-[5-(2,2-dimethyl-3-pyrrolidin-1-yl-propoxy)-1H-indol-2-yl]-6-oxo-1,6-dihydro-pyridin-3-yl}-amide]
